Data as given in the SangsterLogP compilation.

How the values were obtained:
[1] = method code SF-RC, from DOI: 10.1021/jm070025+, PMID: 17411026; settings: pH 7.4
[2] = method code SF-RC, from DOI: 10.1016/j.bmc.2015.06.036, PMID: 26145817; settings: pH 7.4
[3] = method code SF-RC, from DOI: 10.1002/syn.21606, PMID: 22927303; settings: pH 7.4
[4] = method code SF-AS, from DOI: 10.1016/0223-5234(94)90120-1; settings: pH 7.4
[5] = not given; remark: listed apart in the source
[6] = method code SF-AS, from DOI: 10.1080/1071576031000148736, PMID: 14567446
[7] = method code SF-AS, from PMID: 8053967; settings: pH 7.4
[8] = not given; remark: listed apart in the source
[9] = method code SF, from DOI: 10.1016/j.ijpharm.2011.07.043, PMID: 21839822; settings: pH 7.4
[10] = not given; remark: listed apart in the source
[11] = method code SF-RC, from DOI: 10.1016/j.nucmedbio.2005.06.001, PMID: 16253804; settings: pH 7.4
[12] = method code SF-HPLC, from DOI: 10.1584/jpestics.11.469
[13] = method code SF-RC, from DOI: 10.1016/j.ejmech.2014.07.070, PMID: 25063945; settings: pH 7.4
[14] = not given; remark: listed apart in the source
[15] = method code SF-AS, from DOI: 10.1002/jps.2600720808, PMID: 6620139
[16] = method code SF-RC, from DOI: 10.1021/jm301492y, PMID: 23214511; settings: pH 7.4
[17] = not given; remark: listed apart in the source
[18] = method code SF-AS, from DOI: 10.1002/jps.2600610435, PMID: 5014327
[19] = method code SF-AS, from DOI: 10.1039/p29900001191; settings: pH 12.0
[20] = not given; remark: listed apart in the source
[21] = not given; remark: listed apart in the source
[22] = not given; remark: listed apart in the source
[23] = not given; remark: listed apart in the source
[24] = method code SF-AS, from DOI: 10.1023/a:1018977225919, PMID: 10554109; settings: pH 3.5
[25] = not given; remark: listed apart in the source
[26] = method code SF-GLC, from DOI: 10.1023/a:1015803202857, PMID: 2395795
[27] = method code SF-HPLC, from DOI: 10.1016/j.apradiso.2007.04.014, PMID: 17574425; settings: pH 7.4
[28] = method code SF-HPLC, from DOI: 10.1016/j.bmc.2011.11.059, PMID: 22189276; settings: pH 7.4
[29] = method code SF-HPLC, from DOI: 10.1039/p29890001935
[30] = not given; remark: listed apart in the source
[31] = method code RP-HPLC, from DOI: 10.1021/jm970292n, PMID: 9371243

CN(C)c1ccc(/C=C/c2cnc(OCCOCCOCCF)c(I)c2)cc1
logD [1]: 2.59

CSc1nc(NCCc2ccccc2)c2cnn(C(Cl)c3ccc(Cl)cc3)c2n1 (stereo not drawn)
logP: 6.54

Cc1cc(N(C)CCCCF)n2nc(C)c(-c3ccc(Cl)cc3Cl)c2n1
logD [2]: 2.75

CCc1cc2cc(C(=O)C3CCC(OC)CC3)ccc2nc1C (stereo not drawn)
logD [3]: 3.38

S=C1SCN(CCc2ccccc2)CN1Cc1ccccc1
logD [4]: 4.7

S=C1SCN(CCc2ccccc2)CN1CCc1ccccc1
logD [4]: 5.3

CNc1nc(NCCCN(C)C)c2sc(-c3cccc(C(=O)C(F)(F)F)c3)cc2n1
logP [5]: 4.3

CC(=O)Oc1cc2c(cc1Cl)C(c1ccccc1C(=O)O)c1cc(Cl)c(OC(C)=O)cc1O2
logP [6]: 3.51

O=C(CCN1CCOCC1)CN1C(=O)CC2(CCCc3ccccc32)C1=O (stereo not drawn)
logD [7]: 1.63

CCc1cc2cc(C(=O)C3CCC(OC)CC3)ccc2nc1F (stereo not drawn)
logD [3]: 3.54

CN(SN(C)C(=O)Oc1cccc2ccccc12)C(=O)Oc1ccc2c(c1)OCO2
logP [8]: 2.83

CCCCCCCCCCNC(=O)c1ccccc1O
logD [9]: 4.53

CO[C@@]12CCC(=O)[C@@H]3Oc4c(O)ccc5c4[C@@]31CCN(C)[C@@H]2C5
logP [10]: 0.6

CNc1ccc(C=Cc2ccc(OCCOCCOCCF)cc2)cc1
logD [11]: 2.41

CCOC(=O)C(C)Oc1ccc(Oc2cnc3cc(C)ccc3n2)cc1 (stereo not drawn)
logP [12]: 4.11

O=C(O)c1ccccc1C1c2cc(Cl)c(O)cc2Oc2cc(O)c(Cl)cc21
logP [6]: 2.62

CN(C)c1ccc(/C=C/C(=O)/C=C/c2ccc(F)cc2)cc1
logD [13]: 3.89

O=C1CC[C@@]2(O)[C@H]3Cc4ccc(O)c5c4[C@@]2(CCN3CC2CC2)[C@H]1O5
logP [14]: 1.12

CCCCC[C@](C)(O)/C=C/C1[C@H](O)C[C@H](O)[C@@H]1C/C=C\CCCC(=O)OC (stereo partly drawn)
logP [15]: 3.21

CCCCCCNC(=O)c1ccc(O)c(-c2ccccc2)c1
logD [16]: 3.67

COc1ccc(C(C)NCCC(c2ccccc2)c2ccccc2)cc1OC (stereo not drawn)
logP [17]: 5.74

COc1cc(C(=O)NC2CCCC3CN(C)CCC32)cc(OC)c1OC (stereo not drawn)
logP [18]: -0.3

CNc1ccc(/C=C/C(=O)/C=C/c2ccc(F)cc2)cc1
logD [13]: 2.69

N#Cc1cc(-c2ccccc2)nnc1NCCN1CCOCC1
logD [19]: 1.89

C=CCN1CC[C@]23c4c5ccc(O)c4O[C@H]2C(=O)CC[C@@]3(O)[C@H]1C5
logP [14]: 1.53

O=C(CCN1CCOCC1)CN1C(=O)CC2(CCc3ccccc32)C1=O (stereo not drawn)
logD [7]: 1.26

CSc1nc(NCc2cccc(Cl)c2)c2cnn(CC(Cl)c3ccccc3)c2n1 (stereo not drawn)
logP: 5.87

COc1cc2nc(N(C)CCCNC(=O)C3CCCO3)nc(N)c2cc1OC (stereo not drawn)
logP [20]: 1.93

N#Cc1ccc2c(c1)N(CCCN1CCC(O)CC1)c1ccccc1S2
logP [21]: 3.89

COc1ccc(-c2oc3c(CC=C(C)C)c(O)cc(O)c3c(=O)c2O)cc1
logP [22]: 6.07

O=P(Oc1ccccc1)(Oc1ccccc1)Oc1ccccc1
logP [23]: 3.9

CNc1ccc(C=Cc2ccc(OCCOCCF)cc2)cc1
logD [11]: 2.52

Cc1cccc(OC(=O)N(C)SN(C)C(=O)Oc2ccc3c(c2)OCO3)c1
logP [8]: 2.66

CO[C@@]12CCC(=O)[C@]3(C)Oc4c(O)ccc5c4[C@@]31CCN(C)[C@@H]2C5
logP [10]: 1.12

C[C@H](CCC(=O)O)[C@H]1CC[C@H]2[C@@H]3CC[C@@H]4C[C@H](O)CC[C@]4(C)[C@H]3C[C@H](O)[C@]12C
logD [24]: 3.5

CC(n1ccnc1)C(O)(c1ccc(F)cc1)c1ccc(F)cc1 (stereo not drawn)
logP [25]: 3.13

COC(=O)C1=C(C)NC(C)=C(C(=O)OCC(C)C)C1c1cccc([N+](=O)[O-])c1 (stereo not drawn)
logP [20]: 3.23

CNc1ccc(/C=C/c2cnc(OCCOCCOCCF)c(I)c2)cc1
logD [1]: 2.54

O=C(CCCN1CCC(O)(c2ccc(Cl)cc2)CC1)c1ccc(F)cc1
logP [26]: 3.23

CCCCCC(O)C=CC1C(O)CC(=O)C1CCCCCCC(=O)O (stereo not drawn)
logD [24]: 3.12

Cc1cc(N(C)CCOCCF)n2nc(C)c(-c3ccc(Cl)cc3Cl)c2n1
logD [2]: 2.3

O=C(CCl)Nc1cc2c(Nc3cc(Cl)c(Cl)cc3F)ncnc2cc1OCCOCCF
logD [27]: 4.3

O=C(CCl)Nc1cc2c(Nc3cc(Cl)c(Cl)cc3F)ncnc2cc1OCCOCCOCCOCCF
logD [27]: 4.64

CCOC(=O)C(C)Oc1ccc(Oc2cnc3cc(F)ccc3n2)cc1 (stereo not drawn)
logP [12]: 3.65

CCCCCCOC(=O)NCCCC(C)Nc1cc(OC)cc2cccnc12 (stereo not drawn)
logD [28]: 3.02

FC(F)(F)c1ccccc1C1OCC2ON=C(c3ccccc3)C2CO1 (stereo not drawn)
logP [29]: 4.31

CCCCCCCCCCCCNC(=O)c1ccccc1O
logD [9]: 5.37

Cc1ccc(OP(=O)(Oc2ccccc2)Oc2ccccc2)cc1
logP [23]: 4.4

COc1ccc(-c2oc3c(CC=C(C)C)c(O)cc(O)c3c(=O)c2O[C@@H]2O[C@@H](C)[C@H](O)[C@@H](O)[C@H]2O)cc1
logP [22]: 5.11

CCOC(=O)COC(=O)NCCCC(C)Nc1cc(OC)cc2cccn12 (stereo not drawn)
logD [28]: 3.09

Cc1ccccc1C1OCC2ON=C(c3ccccc3)C2CO1 (stereo not drawn)
logP [29]: 2.72

O=C(NC1CCCCC1)c1ccc(O)c(-c2ccccc2)c1
logD [16]: 2.85

C[C@]12CC[C@@H](O)C[C@@H]1CC[C@@H]1[C@@H]2CC[C@]2(C)[C@@H](O)CC[C@@H]12
logP [30]: 4.16

CNc1nc(NCCCN(C)C)c2sc(-c3ccc(C(=O)C(F)(F)F)cc3)cc2n1
logP [5]: 4.6

COc1cc(C(=O)OC2CCC[C@@H]3CN(C)CC[C@H]23)cc(OC)c1OC (stereo partly drawn)
logP [18]: 0.58

CC(=O)Oc1ccc(C(O)(Cn2ccnc2)c2ccc(-c3ccncc3)cc2)cc1 (stereo not drawn)
logP [25]: 2.61

CC1(C)C=C(C(=O)NCCCN2C(=O)c3ccccc3C2=O)C(C)(C)N1
logP [17]: 1.63

c1ccc(Cc2cc(-c3ccccc3)nnc2NCCN2CCOCC2)cc1
logD [19]: 3.65

COc1cccc2cc3cccc(OC)c3c(OC)c12
logP [31]: 4.1

CCCCC[C@H](O)/C=C/[C@@H]1[C@@H](C/C=C\CCCC(=O)O)[C@@H](O)C[C@H]1O
logP [15]: 2.72

O=C1c2c(O)cccc2C(c2ccccc2)c2cccc(O)c21
logP [31]: 3.81

C[C@]12CC[C@H](O)CC1=CC[C@@H]1[C@@H]2CC[C@]2(C)C(=O)CC[C@@H]12
logP [30]: 3.23

CCN(CC)C(=O)Nc1ccc(OCC(O)CNC(C)(C)C)c(C(C)=O)c1 (stereo not drawn)
logP [21]: 1.92
